Data as given in patent US8912216B2, “Hetaryl-[1,8]naphthyridine derivatives” (Merck Patent GmbH, priority 2010, dated 2014).

What was measured:
GST-ALK5 = biological target: T1, GST-ALK5 (Homo sapiens, UniProt P36897); assay: In-vitro (enzyme) kinase assay, 384-well flashplate (Example 36); assay type: biochemical; settings: GST-ALK5, GST-SMAD2 substrate, 3 mM ATP, 30° C., 45 min; read-out: TβR activity (Example 36)
T1 sequence (P36897 34-503): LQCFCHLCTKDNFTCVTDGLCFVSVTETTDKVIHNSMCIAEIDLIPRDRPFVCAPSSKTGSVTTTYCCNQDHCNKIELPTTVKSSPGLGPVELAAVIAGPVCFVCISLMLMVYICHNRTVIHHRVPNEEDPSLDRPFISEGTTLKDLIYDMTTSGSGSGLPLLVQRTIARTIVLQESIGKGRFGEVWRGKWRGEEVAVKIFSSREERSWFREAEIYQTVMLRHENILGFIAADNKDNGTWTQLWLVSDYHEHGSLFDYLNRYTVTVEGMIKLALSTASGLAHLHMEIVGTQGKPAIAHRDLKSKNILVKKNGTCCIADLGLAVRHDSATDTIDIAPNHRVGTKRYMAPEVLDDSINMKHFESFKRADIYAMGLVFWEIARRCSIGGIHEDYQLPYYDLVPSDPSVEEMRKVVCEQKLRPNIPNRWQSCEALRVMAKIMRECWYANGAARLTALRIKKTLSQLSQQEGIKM
In short: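 Radiometric flashplate assay: 31.2 nM GST-ALK5 phosphorylating 439 nM GST-SMAD2 with 3 mM ATP plus ³³P-ATP, in HEPES/MgCl2/MnCl2/DTT/BSA buffer pH 7.4, 45 min at 30 °C, 5-10 compound concentrations. EDTA stop, filtration and washing, then radioactivity counted; IC50 derived from the curve.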

[1] = tested on: TGF-beta-induced phosphorylation of Smad2 and Smad3 in Mv1-Lu cells; assay: Inhibition of Smad2/3 phosphorylation in Mv1Lu cells (Example 35A); assay type: cell-based, mink Mustela vison; settings: Neogale vison, Mv1-Lu cells, TGF-beta 1 5 ng/ml, phospho-Smad2/3 ELISA, read-out: TβR activity (Example 35A)
In short: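 Serum-starved (16-20 h) Mv1-Lu mink lung epithelial cells were pre-incubated 1.5 h with compound dilutions (0.2% DMSO), then stimulated 1 h with 5 ng/ml TGF-beta 1. Phospho-Smad2 (Ser465/467)/Smad3 (Ser423/425) in lysates was measured by ELISA. IC50 came from dose-response fits between stimulated and unstimulated controls.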

SMILES | IC50 (GST-ALK5) | IC50 [1]
CCN1CCc2ccc(-c3cncc(-c4cc(-c5cc(Cl)ccc5F)nc5ncccc45)c3)cc2C1 [compound 173, 2-(5-Chloro-2-fluoro-phenyl)-4-[5-(2-ethyl-1,2,3,4-tetrahydro-isoquinolin-7-yl)-pyridin-3-yl]-[1,8]naphthyridine] | < 100 nM | < 100 nM
CC(C)N1CCC(c2ccc(-c3cncc(-c4cc(-c5cc(Cl)ccc5F)nc5ncccc45)c3)cc2)CC1 [compound 174, 2-(5-Chloro-2-fluoro-phenyl)-4-{5-[4-(1-isopropyl-piperidin-4-yl)-phenyl]-pyridin-3-yl}-[1,8]naphthyridine] | < 100 nM | < 100 nM
Fc1ccc(Cl)cc1-c1cc(-c2cncc(-c3ccc4c(c3)CNC4)c2)c2cccnc2n1 [compound 175, 2-(5-Chloro-2-fluoro-phenyl)-4-[5-(2,3-dihydro-1H-isoindol-5-yl)-pyridin-3-yl]-[1,8]naphthyridine] | < 100 nM | < 100 nM
CC(C)N1CCc2ccc(-c3cncc(-c4cc(-c5cc(Cl)ccc5F)nc5ncccc45)c3)cc2C1 [compound 176, 2-(5-Chloro-2-fluoro-phenyl)-4-[5-(2-isopropyl-1,2,3,4-tetrahydro-isoquinolin-7-yl)-pyridin-3-yl]-[1,8]naphthyridine] | < 100 nM | < 100 nM
CN(C)CCc1ccc(-c2cncc(-c3cc(-c4cc(F)ccc4F)nc4ncccc34)c2)cc1 [compound 177, [2-(4-{5-[2-(2,5-Difluoro-phenyl)-[1,8]naphthyridin-4-yl]-pyridin-3-yl}-phenyl)-ethyl]-dimethyl-amine] | < 100 nM | < 100 nM
CN(C)CCNC(=O)c1ccc(-c2cncc(-c3cc(-c4cc(Cl)ccc4F)nc4ncccc34)c2)cn1 [compound 178, 5′-[2-(5-Chloro-2-fluoro-phenyl)-[1,8]naphthyridin-4-yl]-[3,3′]bipyridinyl-6-carboxylic acid (2-dimethylamino-ethyl)-amide] | 100 to 1000 nM | 100 to 1000 nM
Fc1ccc(Cl)cc1-c1cc(-c2ccc(-c3ccccc3)nc2)c2cccnc2n1 [compound 5599, 2-(5-Chloro-2-fluoro-phenyl)-4-(6-phenyl-pyridin-3-yl)-[1,8]naphthyridine] | > 10000 nM | > 10000 nM
